Here are results for 3 molecules from PMC4919188 (Nature, 2016).

Assay [1] relates to P0 mouse TG neurons. Put plainly: Ratiometric calcium imaging, P0 mouse TG neurons. The format is cell-based. Particulars: ICA-121431 500 nM, SGTx1 500 nM; P0 mouse neurons (Extended Data Fig. 1d).
Assay [2] deals with high-threshold colonic afferents from CVH mice. Put plainly: Ex vivo gut-nerve recording, high-threshold colonic afferents, CVH mice. Details: species or system mouse.
Assay [3] concerns high-threshold colonic afferents from healthy mice. In words: Ex vivo gut-nerve recording, high-threshold colonic afferents, healthy mice. Further details: species or system mouse. Particulars: ICA-121432 with or without Hm1a (100 nM), afferents/total.
Assay [4] deals with nerve-injury evoked mechanical allodynia. Particulars: cited from earlier work.
Assay [5] concerns mouse paw mechanical response threshold. In words: Von Frey test, mechanical sensitivity. The format is in vivo. As to conditions: native Hm1b 500 nM intraplantar, n = 5.

Consider `O=C(Nc1ccc(S(=O)(=O)Nc2nccs2)cc1)C(c1ccccc1)c1ccccc1` [ICA-121431], for which the “block of SGTx1-evoked calcium responses” value in assay [1] is given as “only partially blocked”. Further, in assay [2] (ICA-121431 with Hm1a), the “sensitizing effects of Hm1a” value is recorded as “blocked the sensitizing effects of Hm1a”. Moreover, the “afferents unaltered by ICA” value was 3/10 in assay [2] (ICA-121432 with or without Hm1a, afferents/total) and 5/10 in assay [3].

`NC(=O)c1cn(Cc2c(F)cccc2F)nn1` [rufinamide]: the “effect on nerve-injury evoked mechanical allodynia” value in assay [4] is “diminish nerve-injury evoked mechanical allodynia”.

On to “Hm1b: inhibitor cysteine knot (ICK) peptide from venom of the tarantula Heteroscodra maculata”, for which the “mechanical sensitization compared with Hm1a” value in assay [5] is listed as “Equivalent mechanical sensitization”.
